According to PubChem BioAssay AID1996:
≈ marks a conversion by molar mass, not a printed value.

Conditions: buffer; pH 7.4; 200.0 µM

Row | SMILES | solubility kinetic
1 | CCOc1ccc(S(=O)(=O)N2CN3CCN(C3)C2)cc1 | > 44.6 µg/mL
2 | COc1ccc(N2CCN(C(CNC(=O)C(C)(C)C)c3ccco3)CC2)cc1 (stereo not given) | 54.8 µg/mL (≈ 142 µM)
3 | O=C1N(Cc2ccc(F)cc2)CCN1c1ccc(F)cc1 | 29.3 µg/mL (≈ 102 µM)
4 | COc1cccc(CNC(=O)Cc2ccc(-c3ccccc3)cc2)c1 | 5.1 µg/mL (≈ 15.4 µM)
5 | c1ccc(CCCc2nc(-c3cccnc3)no2)cc1 | 30.5 µg/mL (≈ 115 µM)
6 | O=C(NCC1CCCO1)c1ccc(NC(=O)c2ccc(Br)cc2)cc1 (stereo not given) | 1.2 µg/mL (≈ 2.98 µM)
7 | CCOC(=O)c1c(C)[nH]c(C)c1C(=O)COC(=O)C1CC(=O)N(CCc2ccccc2)C1 (stereo not given) | > 66.1 µg/mL
8 | CCOc1ccc2oc(C(=O)NCC(C)(C)CN(C)C)c(C)c2c1.Cl | 48.4 µg/mL
9 | Cc1cnc(C(=O)OCc2c(C)cc(C(C)(C)C)cc2C)cn1 | 9 µg/mL (≈ 28.8 µM)
10 | O=C(CN1c2cccc3cccc(c23)S1(=O)=O)NCc1ccc(F)cc1 | 27.4 µg/mL (≈ 74 µM)
11 | Cc1nc2ccccc2c(=O)n1NC(=O)c1c(F)cccc1F | > 47.3 µg/mL
12 | CC1(C)CC(=O)C2=C(C1)OC(N)=C(C#N)C2c1ccoc1 (stereo not given) | > 42.6 µg/mL
13 | O=C(CS(=O)CC(=O)NC12CC3CC(CC(C3)C1)C2)Nc1ccc(F)cc1 (stereo not given) | 16.2 µg/mL (≈ 41.3 µM)
14 | COC(=O)c1ccc(NC(=S)Nc2ccc(O)cc2)cc1 | 22.3 µg/mL (≈ 73.8 µM)
15 | C/C=C/C=C(/NC(=O)c1ccccc1)C(=O)Nc1ccccc1 | 2.3 µg/mL (≈ 7.51 µM)
16 | COc1ccc(Cc2nc(C)cc(Cl)n2)cc1[N+](=O)[O-].Cl | > 49.5 µg/mL
17 | Cc1ccc(C(=O)OCC(=O)Nc2ccc(F)c(Cl)c2)o1 | 2.9 µg/mL (≈ 9.3 µM)
18 | O=C(OCC(=O)N1CCCC1=O)c1nc(Cl)c(Cl)c(Cl)c1Cl | 32.9 µg/mL (≈ 85.2 µM)
19 | COc1ccc(CNC(=O)/C=C/C(=O)O)cc1 | 35 µg/mL (≈ 149 µM)
20 | CC(C)(C)C(=O)C1=C(O)C(=O)N(Cc2ccccc2)C1c1ccccc1Cl (stereo not given) | > 57.6 µg/mL
21 | CC(=O)Nc1ccc(NC=C(C#N)C#N)cc1 | 4.2 µg/mL (≈ 18.6 µM)
22 | Cc1cccn2c(NC(=O)c3ccccc3F)c(-c3ccccc3)nc12 | 2.6 µg/mL (≈ 7.53 µM)
23 | CC(C)(C)c1ccc(OCCCN2CCCC2)cc1 | 28.6 µg/mL (≈ 109 µM)
24 | Cc1nnc(SC(C)C(=O)NCC2CCCO2)s1 (stereo not given) | > 43.1 µg/mL

Row | SMILES | solubility kinetic
25 | Cc1ccc2c(COC(=O)C3CSC4(C)CCC(=O)N34)cc(=O)oc2c1C (stereo not given) | 38.4 µg/mL (≈ 99.1 µM)
26 | CN(Cc1ccc(OC(F)F)cc1)C(=O)/C=C/c1ccc(S(=O)(=O)N2CCOCC2)cc1 | 22.8 µg/mL (≈ 48.9 µM)
27 | Oc1ccc(Br)cc1CNc1cccc2cccnc12 | 1 µg/mL (≈ 3.04 µM)
28 | COc1ccc(OC)c(C(=O)c2coc3ccc(O)c(CN(C)C)c23)c1.Cl | > 58.8 µg/mL
29 | COc1ccccc1-n1c(C)c(C(C)=O)c2cc(O)ccc21 | 3 µg/mL (≈ 10.2 µM)
30 | Cc1ccc(S(=O)(=O)NC2CCCCCCC2)cc1 | 24.3 µg/mL (≈ 86.3 µM)
31 | Cc1cccc(C)c1N1CCN(S(=O)(=O)c2ccccc2)CC1 | < 0.4 µg/mL
32 | CC(Sc1ccccn1)C(=O)NC1CCCC1 (stereo not given) | > 37.6 µg/mL
33 | O=C(O)c1cccc(OCCN2CCCC2=O)c1 | 34.6 µg/mL (≈ 139 µM)
34 | CCn1cc(C2=NC(CCSC)CO2)c2ccccc21 (stereo not given) | 34 µg/mL (≈ 118 µM)
35 | Cc1nc(-c2cccc(NC(=O)Cc3ccccc3)c2)cs1 | 30.1 µg/mL (≈ 97.6 µM)
36 | CCCn1c(N)c(N2CCCCC2)c(=O)n(CC(=O)Nc2cccc(S(=O)(=O)N(C)C)c2)c1=O | 68.3 µg/mL (≈ 139 µM)
37 | Cc1ccc(S(=O)(=O)N2CCN(C(=O)N3CCCC3)CC2)cc1 | 48.7 µg/mL (≈ 144 µM)
38 | NC(N)=S | > 11.4 µg/mL
39 | CCCCc1nnc(NC(=O)C(=O)OCC)s1 | > 38.6 µg/mL
40 | O=C(COC(=O)c1cc(S(=O)(=O)N2CCOCC2)ccc1Cl)NCc1ccccc1 | > 67.9 µg/mL
41 | c1ccc(Oc2cccc(Oc3ccccc3)n2)cc1 | < 0.6 µg/mL
42 | COc1ccc(S(=O)(=O)n2c(C)nc3ccccc32)cc1C | 36.2 µg/mL (≈ 114 µM)
43 | COc1ccc2oc3c(c2c1)NC(=O)CN=C3c1ccccc1 | 3.1 µg/mL (≈ 10.1 µM)
44 | O=C1NC(c2ccc(Br)cc2)Nc2ccccc21 (stereo not given) | 9 µg/mL (≈ 29.7 µM)
45 | Cc1csc(NC(=O)C2CSC3(C)CCC(=O)N23)n1 (stereo not given) | > 44.6 µg/mL
46 | CCOC(=O)C1(CC2CC2)CCN(C(=O)c2cccnc2C)CC1 | > 49.6 µg/mL
47 | O=C(CN1CCN(Cc2ccc(F)cc2)C1=O)NC1CCCC1 | > 47.9 µg/mL
48 | O=C(NCc1ccco1)/C(=C\c1ccco1)NC(=O)c1ccco1 | 47.3 µg/mL (≈ 145 µM)

Row | SMILES | solubility kinetic
49 | COc1ccc(Cl)cc1C(=O)NCCCn1ccnc1 | > 44.1 µg/mL
50 | CCOC(=O)COn1c(=O)c(-c2ccc(F)cc2)[n+]([O-])c2ccccc21 | 3.8 µg/mL (≈ 10.6 µM)
51 | O=C(O)Cc1sc(NC2CCCCC2)nc1-c1ccc(Cl)cc1 | > 52.6 µg/mL
52 | COC(=O)CN1C(=O)NC2(CCCc3ccccc32)C1=O (stereo not given) | > 43.2 µg/mL
53 | Clc1ccccc1OCCCOc1cccc2cccnc12 | 3.9 µg/mL (≈ 12.4 µM)
54 | COc1ccccc1/C=C/C(=O)Nc1cccnc1 | > 38.1 µg/mL
55 | COc1ccccc1NC(=O)NNC(=O)CCN1CCOCC1 | > 48.4 µg/mL
56 | Cc1sc2nc(COC(=O)c3ccc(O)cc3)[nH]c(=O)c2c1C | 8 µg/mL (≈ 24.2 µM)
57 | [Cl-].c1ccc(Cn2c[n+](Cc3ccccc3)c3ccccc32)cc1 | 42.9 µg/mL
58 | Cc1cc(C(=O)Nc2cc(C(C)(C)C)on2)c(C)o1 | 3.8 µg/mL (≈ 14.5 µM)
59 | CC(=O)Nc1ccc(OCCOc2ccc(NC(C)=O)cc2)cc1 | 2.2 µg/mL (≈ 6.7 µM)
60 | NC(=O)c1ccccc1NCC(=O)c1ccc(F)cc1 | > 40.8 µg/mL
61 | COC(=O)c1ccc(S(=O)(=O)NCc2ccc(OC)cc2)n1C | > 50.8 µg/mL
62 | NC(CSCc1ccccc1Cl)C(=O)O (stereo not given) | > 36.9 µg/mL
63 | CC(C)Cc1ccc(C(=O)NCCOc2ccccc2)o1 | 29.2 µg/mL (≈ 102 µM)
64 | COc1cccc(C2CCCCN(C)C2=O)c1 (stereo not given) | 32.7 µg/mL (≈ 140 µM)
65 | CCOc1ccccc1NC(=O)N1CCCC1C(=O)NCc1ccco1 (stereo not given) | 48.2 µg/mL (≈ 135 µM)
66 | O=C(NCCNC(=O)c1cnccn1)c1ccc(Cl)cc1 | > 45.7 µg/mL
67 | Cc1cccc(NC(=O)CCCC(=O)OC(C)C(=O)c2ccccc2)c1 (stereo not given) | 46.1 µg/mL (≈ 130 µM)
68 | c1ccc(CN2CCC(Nc3ncnc4sccc34)CC2)cc1 | 46.2 µg/mL (≈ 142 µM)
69 | COc1ccc(CSc2nc(C)cc(C)c2C#N)cc1 | 2.7 µg/mL (≈ 9.49 µM)
70 | CC(C)NC(=O)Cn1cc(C(=O)c2ccccc2)c2ccccc21 | 1.7 µg/mL (≈ 5.31 µM)
71 | COc1ccc(/C=C/C(=O)NCc2ccccn2)cc1OC | > 44.8 µg/mL
72 | COc1ccc(NC(=O)Nc2cnccn2)cc1 | 8.1 µg/mL (≈ 33.2 µM)

Row | SMILES | solubility kinetic
73 | C=CCNc1nc(C(=O)OCC(=O)Nc2ccccc2C(F)(F)F)cs1 | 26.9 µg/mL (≈ 69.8 µM)
74 | Cc1ccc(S(=O)(=O)N2CCC(C(N)=O)CC2)cc1[N+](=O)[O-] | > 49.1 µg/mL
75 | CCOc1ccc(N2CC(C(=O)Nc3cc(S(=O)(=O)N4CCCCC4)ccc3C)CC2=O)cc1 (stereo not given) | 1.3 µg/mL (≈ 2.68 µM)
76 | O=C(O)CCCNC(=O)/C=C/c1ccco1 | 26.5 µg/mL (≈ 119 µM)
77 | COc1ccc(N2CCN(C(=O)c3cc4c(s3)CCCCC4)CC2)cc1 | 5.3 µg/mL (≈ 14.3 µM)
78 | CCOC(=O)c1sc(N)c(C(=O)OCC)c1C | 4.4 µg/mL (≈ 17.1 µM)
79 | Cc1ccc(NS(=O)(=O)c2ccc(NC(=O)c3ccccc3C(=O)O)cc2)cc1C | > 63.7 µg/mL
80 | CC(C)(C)NC(=O)/C(=C\c1ccco1)NC(=O)c1ccco1 | > 45.3 µg/mL
81 | Cc1cccc(C)c1NC(=S)N/N=C/c1ccc(C(=O)O)cc1 | > 49.1 µg/mL
82 | Brc1cccc(C2Nc3cccc4cccc(c34)N2)c1 | < 0.3 µg/mL
83 | Cc1ccc(CN2CCN(c3cccc4[nH]ccc34)CC2)cc1 | 41.2 µg/mL (≈ 135 µM)
84 | O=C(COc1ccccc1[N+](=O)[O-])Nc1cccnc1 | 17.3 µg/mL (≈ 63.3 µM)
85 | Cc1cc(NC(=O)c2cccc(C)c2[N+](=O)[O-])no1 | < 0.2 µg/mL
86 | CC(C)Sc1ccccc1C(=O)Nc1ccc2c(c1)n(C)c(=O)n2C | > 53.3 µg/mL
87 | CC(Sc1nnc2n1CCCCC2)C(=O)Nc1ccccc1[N+](=O)[O-] (stereo not given) | > 54.2 µg/mL
88 | CC1CCCC(NC(=O)COC(=O)c2cc3ccccc3oc2=O)C1C (stereo not given) | 33.3 µg/mL (≈ 93.2 µM)
89 | CC(=O)N1CCN(CC(=O)Nc2cc(S(=O)(=O)N3CCCCC3)ccc2C)CC1 | > 63.4 µg/mL
90 | Cc1ccn2cc(-c3ccc(O)c(O)c3)nc2c1.Cl | 17.8 µg/mL
91 | COc1cccc(/C=C/C(=O)NCC2CCCCC2)c1 | 16.4 µg/mL (≈ 60 µM)
92 | CC1CCCCC12NC(=O)N(CC(=O)OCc1ccccc1F)C2=O (stereo not given) | 17.2 µg/mL (≈ 49.4 µM)
93 | FC(F)(F)c1ccccc1-n1ccnc1 | 30.2 µg/mL (≈ 142 µM)
94 | Cc1ccc(C(=O)NCCCNC(=O)c2ccccc2F)cn1 | 44.1 µg/mL (≈ 140 µM)
95 | O=C(Nc1ccc2nccnc2c1)Nc1ccccc1Cl | 1 µg/mL (≈ 3.35 µM)
96 | Cl.OC(CNCc1ccccc1)COCc1ccc(Cl)cc1 (stereo not given) | 34.2 µg/mL

Row | SMILES | solubility kinetic
97 | O=C(O)Cc1ccc2oc(-c3ccccn3)nc2c1 | > 38.1 µg/mL
98 | N#Cc1cc2c(nc1Cl)CCC2 | 20.2 µg/mL (≈ 113 µM)
99 | O=C(NCc1ccc(Cl)cc1)C1CCN(C(=O)c2ccco2)CC1 | > 52 µg/mL
100 | CCCCn1c(O)c(C(C)=NCc2ccco2)c(=O)[nH]c1=O | 9.1 µg/mL (≈ 29.8 µM)
101 | Cc1nc(C)c(C(=O)O)c(-c2cccs2)c1C(=O)O | > 41.6 µg/mL
102 | CN1CCCN(C(=O)COc2ccc(F)cc2Cl)CC1 | > 45.1 µg/mL
103 | O=C(CCC1CCCCC1)NC1CCCCC1 | 16.6 µg/mL (≈ 69.9 µM)
104 | COC(=O)c1ccccc1NC(=O)c1cc(-c2ccco2)on1 | 0.6 µg/mL (≈ 1.92 µM)
105 | Cc1ccc(-c2c[n+](=O)c3c(n2[O-])CCC3)cc1 | > 36.3 µg/mL
106 | Cc1sc2ncnc(N3CCCC(C)C3)c2c1C.Cl (stereo not given) | 11 µg/mL
107 | Cc1c2n(c3ccccc13)CCC2=O | 14.1 µg/mL (≈ 76.1 µM)
108 | CCOc1cc(OCC)cc(C(=O)NCCCN2CCOCC2)c1 | 48.4 µg/mL (≈ 144 µM)
109 | O=C(CN1C(=O)C2CC=CCC2C1=O)NC1CCCCC1 (stereo not given) | 42.5 µg/mL (≈ 146 µM)
110 | Br.CN(C)C1=NCC(CSC(=N)N)S1 (stereo not given) | 32.5 µg/mL
111 | CCC1Oc2ccccc2N(CC(=O)NCC2CCCO2)C1=O (stereo not given) | 44.5 µg/mL (≈ 140 µM)
112 | COc1ccccc1C(=O)Nc1ccc(NC(=O)C2CCCCC2)nc1 | 0.9 µg/mL (≈ 2.55 µM)
113 | CCCn1c(SCC(=O)N(CC)CC)nnc1-c1ccncc1 | > 50 µg/mL
114 | O=C(NCc1ccc(Cl)cc1)N1CCc2ccccc2C1 | 4.5 µg/mL (≈ 15 µM)
115 | Cc1ccc([N+](=O)[O-])cc1N | 13.5 µg/mL (≈ 88.7 µM)
116 | Cc1ccsc1C1C(C#N)=C(N)OC2=C1C(=O)CC(C)C2 (stereo not given) | 38.7 µg/mL (≈ 129 µM)
117 | CN(C)/C(=N\S(=O)(=O)c1ccccc1)c1ccccc1 | > 43.3 µg/mL
118 | COc1ccc(NC(=O)CSCCc2ccccn2)cc1OC | 48.7 µg/mL (≈ 146 µM)
119 | O=c1[nH]c2c(c(=O)[nH]1)CCC2 | > 22.8 µg/mL
120 | COc1ccc(C2C(C(C)=O)=C(O)C(=O)N2c2ccc(O)cc2)cc1 (stereo not given) | > 50.9 µg/mL
